Experimental data from article PMC8081377 (Mutagenesis, 2021).
Like-named read-outs stand apart in the source and are kept apart here.

Tests used:
[1] = test system: RS tissues; details: cited from earlier work; for RSMN result with the 72-h protocol: contract research lab
[2] = test system: reconstructed human skin (RS) tissues; details: cited from earlier work; for detection of DNA damage, RS Comet assay versus RSMN assay: direct treatment with genotoxic metabolites of 2-AAF
[3] = topically-applied; cited from earlier work
[4] = test system: EpiDerm™ EPI-200-MNA skin tissues
[5] = test system: CHO, CHL, V79, HuLy cells; details: cited from earlier work
[6] = test system: EpiDerm™ EPI-200-MNA skin tissues; details: for top/maximum dose tested, limited by excessive or strong cytotoxicity: % VCC or % BN
[7] = test system: V79, CHO, CHL, HuLy, TK6, HepG2, L5178Y cells; details: cited from earlier work
[8] = cited from earlier work
[9] = test system: mouse lymphoma cells; details: cited from earlier work
[10] = test system: stomach, liver; details: rats, daily treatment for 3 days, initial evaluation; cited from earlier work
[11] = test system: multiple tissues; details: mice, single i.p. injection; cited from earlier work
[12] = multiple treatments of RS tissues
[13] = three treatments, vs solvent control
[14] = two treatments, vs solvent control

SMILES: c1ccc2c(c1)cc1ccc3cccc4ccc2c1c34 [B[a]P]
- RSMN result with the 72-h protocol [1]: positive results

SMILES: CC(=O)Nc1ccc2c(c1)Cc1ccccc1-2 [2-Acetylaminofluorene (2-AAF), 2-Acetylaminofluorene]
- DNA damage in the RS Comet assay [2]: weak, but statistically significant and reproducible increase in DNA damage
- response in the RS Comet assay [2, 12]: significant response
- metabolism in human skin explants [3]: evidence for metabolism
- response in the RSMN assay [1, 12]: not in the RSMN assay
- classification in the RSMN assay by Lab B ([4]; overall call): negative
- classification in the RSMN assay by Lab C ([4]; overall call): negative
- classification in the RSMN assay by Lab D ([4]; overall call): negative
- % MN-BN response in individual experiment(s), Lab B, 72-h protocol [4, 13]: without a significant response
- % MN-BN response in individual experiment(s), Lab C, 72-h protocol [4, 13]: without a significant response
- % MN-BN response in individual experiment(s), Lab B, 48-h protocol [4, 14]: without a significant response
- % MN-BN response in individual experiment(s), Lab C, 48-h protocol [4, 14]: without a significant response
- % MN-BN response in individual experiment(s), Lab D, 48-h protocol [4, 14]: no significant increase

SMILES: Nc1ccn([C@@H]2O[C@H](CO)[C@@H](O)[C@@H]2O)c(=O)n1 [Cytosine arabinoside]
- in vitro chromosome aberration tests [5]: positive
- top/maximum dose tested, limited by excessive or strong cytotoxicity ([6]; lab(s) as stated in the text): 48 µg/cm^2
- classification in the RSMN assay by Lab B ([4]; overall call): negative
- % MN-BN response in individual experiment(s), Lab B, 72-h protocol [4, 13]: Negative results
- % MN-BN response in individual experiment(s), Lab B, 48-h protocol [4, 14]: did not show a significant increase
- in vitro MN tests [7]: positive

SMILES: C=CCc1ccc(O)c(OC)c1 [Eugenol]
- carcinogenicity tests ([8]; ref Supplementary Table S1): negative
- in vitro chromosome aberration tests ([5]; ref Supplementary Table S1): positive findings
- top/maximum dose tested, limited by excessive or strong cytotoxicity ([6]; lab(s) as stated in the text): 80–100 µg/cm^2
- classification in the RSMN assay by Lab A ([4]; overall call): positive
- % MN-BN response in individual experiment(s), Lab A, 72-h protocol [4, 13]: significant increase in the % MN-BN was seen at the two highest doses
- % MN-BN response in individual experiment(s), Lab A, 48-h protocol [4, 14]: significant increase in % MN-BN only at one mid-dose
- in vitro MN tests ([7]; ref Supplementary Table S1): positive findings

SMILES: C1=Cc2cc3cccc4ccc5ccc1c2c5c43 [Cyclopenta[c,d]pyrene (CPPE), Cyclopenta[c,d]pyrene]
- skin tumours ([8]; mice, dermal application, ref Supplementary Table S1): induce skin tumours
- mouse lymphoma assay [9]: positive
- maximum dose tested without exceeding the cytotoxicity thresholds ([6]; lack of excessive cytotoxicity, 48-h protocol): 1600 µg/cm^2
- classification in the RSMN assay by Lab B ([4]; overall call): positive
- % MN-BN response in individual experiment(s), Lab B, 72-h protocol [4, 13]: significant increase
- % MN-BN response in individual experiment(s), Lab C, 48-h protocol [4, 14]: negative results

SMILES: [Cl][Cd][Cl] [Cadmium chloride (CdCl2), Cadmium chloride]
- top/maximum dose tested, limited by excessive or strong cytotoxicity ([6]; lab(s) as stated in the text): 160 µg/cm^2
- doses that caused 50% cytotoxicity ([6]; Lab A, 48-h protocol, Phase 2c): 100–160 µg/cm^2
- in vivo comet assay result, stomach [10]: positive
- classification in the RSMN assay by Lab A ([4]; overall call): positive
- classification in the RSMN assay by Lab B ([4]; overall call): negative
- classification in the RSMN assay by Lab C ([4]; overall call): positive
- % MN-BN response in individual experiment(s), Lab A, 72-h protocol [4, 13]: clear increase
- % MN-BN response in individual experiment(s), Lab B, 72-h protocol [4, 13]: negative results
- % MN-BN response in individual experiment(s), Lab A, 48-h protocol [4, 14]: without any significant increase
- % MN-BN response in individual experiment(s), Lab B, 48-h protocol [4, 14]: No detectable increase
- % MN-BN response in individual experiment(s), Lab C, 48-h protocol [4, 14]: negative
- in vivo comet assay result, multiple tissues [11]: negative results

SMILES: O=P1(N(CCCl)CCCl)NCCCO1 (stereo not drawn) [cyclophosphamide]
- RSMN result with the 72-h protocol [1]: positive results

SMILES: CC(=O)N(O)c1ccc2c(c1)Cc1ccccc1-2 [N-hydroxy-2-acetylaminofluorene]
- detection of DNA damage, RS Comet assay versus RSMN assay [2]: more efficiently detected in the RS Comet assay than in the RSMN assay

SMILES: Cn1c(N)nc2c3cccnc3ccc21 [2-Amino-3-methylimidazo[4,5-f]quinolone]
- IARC class ([8]; carcinogen classification): 2A
- detection in the RS Comet assay ([2]; after multiple treatments): not detected
- % BN (excessive cytotoxicity) ([6]; at ≥150 µg/cm^2, 48-h protocol, Lab A): < 20 % BN
- % MN-BN response in individual experiment(s), Lab A, 72-h protocol [4, 13]: Significant increases
- % MN-BN response in individual experiment(s), Lab A, 48-h protocol [4, 14]: no increase

SMILES: ONc1ccc2c(c1)Cc1ccccc1-2 [N-hydroxy-2-aminofluorene]
- detection of DNA damage, RS Comet assay versus RSMN assay [2]: more efficiently detected in the RS Comet assay than in the RSMN assay

SMILES: Cc1c2ccccc2c(C)c2c1ccc1ccccc12 [7,12-Dimethylbenz[a]thracene (DMBA), 7,12-Dimethylbenz[a]anthracene]
- result in a previous RSMN study ([1]; % VCC not used as cytotoxicity measure, higher doses tested): positive
- top dose, limited by precipitation on the surface of the skin tissues ([6]; lab(s) as stated in the text): 240 µg/cm^2
- % MN-BN response in individual experiment(s), Lab A, 48-h protocol [4]: did not increase
- % MN-BN response in individual experiment(s), Lab A, 72-h protocol [4]: did not induce an increase
- classification in the RSMN assay by Lab A [4]: negative
